According to ChEMBL document CHEMBL1201862, “PubChem BioAssay data set” (2004):
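Following 48 hours of exposure in 96-well plates, responses at five concentrations were used to interpolate endpoints linearly. GI50 marks 50% less growth.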 Calls of active or inactive are those of the source. Cut-off read from the data, not from the text of the source: active = GI50 up to about 1.1 µM and inactive = higher.

Columns and labels:
Experiment in all cases: growth of human tumour cells (NCI), 48 h
SW-620 = test system: SW-620
A498 = test system: A498
ACHN = test system: ACHN
Hs-578T = test system: Hs-578T
OVCAR-4 = test system: OVCAR-4
SN12C = test system: SN12C
CCRF-CEM = test system: CCRF-CEM
SK-MEL-5 = test system: SK-MEL-5
KM12 = test system: KM12
T47D = test system: T47D
UACC-62 = test system: UACC-62
SF-539 = test system: SF-539
SNB-75 = test system: SNB-75
SK-MEL-2 = test system: SK-MEL-2
EKVX = test system: EKVX
MDA-N = test system: MDA-N
COLO 205 = test system: COLO 205
HT-29 = test system: HT-29
Malme-3M = test system: Malme-3M
RXF 393 = test system: RXF 393

Measured: GI50

CC1(C)CN=C(c2ccc3ccccc3c2O)N1
inactive: SW-620 > 100 µM | A498 > 100 µM | ACHN > 100 µM | Hs-578T > 100 µM | OVCAR-4 > 100 µM | SN12C > 100 µM | CCRF-CEM > 100 µM | SK-MEL-5 > 100 µM | KM12 > 100 µM | T47D > 100 µM | UACC-62 > 100 µM | SF-539 > 100 µM | SNB-75 > 100 µM | SK-MEL-2 > 100 µM | EKVX > 100 µM | MDA-N > 100 µM | COLO 205 > 100 µM

O=C1NI(C#Cc2ccccc2)c2ccccc21
inactive: SW-620 > 100 µM | A498 > 100 µM | Hs-578T > 100 µM | OVCAR-4 53 µM | SN12C > 100 µM | CCRF-CEM 40.6 µM | SK-MEL-5 > 100 µM | KM12 95.1 µM | T47D 53 µM | UACC-62 > 100 µM | SF-539 > 100 µM | HT-29 > 100 µM | SK-MEL-2 > 100 µM | Malme-3M > 100 µM | MDA-N > 100 µM | COLO 205 29.7 µM

N=C(N)NS(=O)(=O)c1ccc(NC(=O)c2cccc3c(NNc4ccc(S(=O)(=O)N=C(N)N)cc4)c4ccccc4nc23)cc1
inactive: SW-620 48.9 µM | ACHN 75 µM | Hs-578T 54.7 µM | OVCAR-4 80.5 µM | SN12C > 100 µM | CCRF-CEM 19.3 µM | SK-MEL-5 56.9 µM | RXF 393 > 100 µM | KM12 > 100 µM | T47D 22.6 µM | UACC-62 46.9 µM | SF-539 > 100 µM | HT-29 31.1 µM | SNB-75 > 100 µM | SK-MEL-2 16.9 µM | Malme-3M 38.2 µM | EKVX 30.8 µM | MDA-N 91.4 µM | COLO 205 92.7 µM

O=C(/C=C(\Nc1ccccc1O)c1ccc(Br)cc1)C(Cl)(Cl)Cl
inactive: SW-620 3.06 µM | ACHN 2.55 µM | Hs-578T 3.1 µM | OVCAR-4 5.16 µM | SN12C 7.67 µM | CCRF-CEM 15.4 µM | SK-MEL-5 14.2 µM | RXF 393 5.51 µM | KM12 2.75 µM | T47D 3.95 µM | UACC-62 13.3 µM | SF-539 12.7 µM | HT-29 6.43 µM | SNB-75 13.7 µM | SK-MEL-2 8.04 µM | Malme-3M 15.2 µM | EKVX 3.21 µM | MDA-N 4.69 µM | COLO 205 6.95 µM

CC1=C(C(=O)NCC(C)O)CC(C(=O)NCC(C)O)=C(C)N1 (stereo unspecified)
inactive: SW-620 > 100 µM | ACHN > 100 µM | Hs-578T > 100 µM | OVCAR-4 > 100 µM | SN12C > 100 µM | CCRF-CEM > 100 µM | SK-MEL-5 > 100 µM | RXF 393 > 100 µM | KM12 > 100 µM | T47D > 100 µM | UACC-62 > 100 µM | SF-539 > 100 µM | HT-29 > 100 µM | SNB-75 72.9 µM | SK-MEL-2 > 100 µM | EKVX > 100 µM | MDA-N > 100 µM | COLO 205 > 100 µM

COc1ccc2c(c1)/C(=C\c1c(Cl)nc3n1CCS3)C(=O)N2
inactive: SW-620 4.94 µM | A498 4.89 µM | ACHN 11 µM | Hs-578T 11.2 µM | OVCAR-4 11.9 µM | SN12C 10.8 µM | CCRF-CEM 6.31 µM | SK-MEL-5 5.06 µM | RXF 393 2.13 µM | KM12 2.62 µM | T47D 5.16 µM | UACC-62 4 µM | SF-539 4.65 µM | HT-29 3.25 µM | SNB-75 10.8 µM | Malme-3M 11.2 µM | EKVX 18.3 µM | MDA-N 1.48 µM | COLO 205 3.14 µM

COc1ccc(Cc2cc(Cc3ccc(OC)cc3)cc(Cc3ccc(OC)cc3)c2)cc1
inactive: SW-620 > 100 µM | A498 > 100 µM | ACHN > 100 µM | Hs-578T > 100 µM | OVCAR-4 > 100 µM | SN12C > 100 µM | KM12 > 100 µM | T47D > 100 µM | UACC-62 > 100 µM | SF-539 > 100 µM | HT-29 > 100 µM | SNB-75 > 100 µM | SK-MEL-2 > 100 µM | Malme-3M 56.8 µM | EKVX > 100 µM | MDA-N 6.58 µM

O=[N+]([O-])c1ccc(Cl)cc1N/N=C/c1cccs1
inactive: SW-620 > 100 µM | ACHN > 100 µM | Hs-578T 72.4 µM | OVCAR-4 > 100 µM | SN12C > 100 µM | CCRF-CEM > 100 µM | SK-MEL-5 > 100 µM | RXF 393 > 100 µM | KM12 > 100 µM | T47D 26.4 µM | UACC-62 > 100 µM | SF-539 > 100 µM | HT-29 > 100 µM | SNB-75 > 100 µM | EKVX > 100 µM | MDA-N > 100 µM | COLO 205 > 100 µM

C[C@@H](c1ccccc1)n1c(N)c(-c2ccccn2)c2ccc([N+](=O)[O-])cc2c1=O
inactive: SW-620 > 100 µM | A498 18.5 µM | ACHN 56.9 µM | Hs-578T 26.9 µM | OVCAR-4 80.2 µM | SN12C 98.2 µM | CCRF-CEM 32.1 µM | SK-MEL-5 25.7 µM | KM12 67.9 µM | T47D 43.2 µM | UACC-62 > 100 µM | HT-29 > 100 µM | SNB-75 12.8 µM | SK-MEL-2 > 100 µM | MDA-N 88.7 µM | COLO 205 38.2 µM

CC1OC(O[C@H]2C3C=CO[C@@H](OC4OC(CO)C(O)C(O)C4O)C3[C@@]3(COC(=O)/C=C/c4ccc(O)cc4)O[C@@H]23)C(O)C(O)C1O (stereo partly specified)
inactive: SW-620 > 100 µM | A498 > 100 µM | ACHN > 100 µM | Hs-578T > 100 µM | OVCAR-4 > 100 µM | SN12C > 100 µM | SK-MEL-5 > 100 µM | RXF 393 > 100 µM | KM12 > 100 µM | T47D > 100 µM | UACC-62 > 100 µM | HT-29 > 100 µM | SNB-75 > 100 µM | SK-MEL-2 > 100 µM | Malme-3M > 100 µM | EKVX > 100 µM | MDA-N > 100 µM | COLO 205 > 100 µM

SC1=NNC2(C(Cl)=N1)c1ccccc1-c1ccccc12
inactive: SW-620 > 10 µM | A498 > 10 µM | Hs-578T > 10 µM | OVCAR-4 > 10 µM | SN12C > 10 µM | CCRF-CEM > 10 µM | SK-MEL-5 > 10 µM | KM12 > 10 µM | T47D > 10 µM | UACC-62 > 10 µM | SF-539 > 10 µM | SNB-75 > 10 µM | Malme-3M > 10 µM | EKVX > 10 µM | MDA-N > 10 µM | COLO 205 > 10 µM
